Assay results taken from paper PMC9064246 (RSC Advances, 2019).

Molecular target: T1, Lactobacillus reuteri 121 inulosucrase (LrInu; InuΔ699His) (Limosilactobacillus reuteri, UniProt Q8GP32)
T1 sequence (Q8GP32 37-699 limits assumed): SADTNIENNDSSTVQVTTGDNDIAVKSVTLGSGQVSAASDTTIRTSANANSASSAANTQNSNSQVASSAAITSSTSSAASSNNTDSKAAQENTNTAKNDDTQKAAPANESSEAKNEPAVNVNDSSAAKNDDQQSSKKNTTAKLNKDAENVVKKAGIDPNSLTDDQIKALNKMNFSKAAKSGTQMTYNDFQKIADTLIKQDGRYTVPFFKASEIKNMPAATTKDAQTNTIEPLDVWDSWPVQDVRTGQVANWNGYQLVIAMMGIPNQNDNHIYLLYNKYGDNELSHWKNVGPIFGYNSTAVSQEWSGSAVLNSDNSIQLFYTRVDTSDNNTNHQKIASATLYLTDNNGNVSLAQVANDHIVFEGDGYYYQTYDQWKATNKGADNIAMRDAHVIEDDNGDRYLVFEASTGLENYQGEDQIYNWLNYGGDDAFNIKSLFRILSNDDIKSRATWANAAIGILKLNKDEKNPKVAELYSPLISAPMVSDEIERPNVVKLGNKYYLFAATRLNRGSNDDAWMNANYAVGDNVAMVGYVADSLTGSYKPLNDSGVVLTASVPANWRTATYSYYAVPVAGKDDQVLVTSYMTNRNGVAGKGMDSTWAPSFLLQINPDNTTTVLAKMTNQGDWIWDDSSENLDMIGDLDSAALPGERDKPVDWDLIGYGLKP
Assay: FOS synthesis, TLC / HPLC / MALDI-TOF MS
Assay type: biochemical
Conditions: 0.5 M sucrose, 5 U/mL enzyme, 50 mM acetate pH 5.5, 30 °C, 24 h

OC[C@H]1O[C@@](CO)(O[C@H]2O[C@H](CO)[C@@H](O)[C@H](O)[C@H]2O)[C@@H](O)[C@@H]1O [sucrose]
FOS synthesis, TLC / HPLC / MALDI-TOF MS: transglycosylation products of R483A, R483F, R483Y and R483W
